pIC50: −log10 of the molar value.

The target in the assay is wild type RET (Homo sapiens (Human), UniProt P07949). The experiment in a line: RET Wild Type Assay at KM (Caliper electrophoretic mobility shift). It counts as biochemical. As to conditions: 25 μM ATP, 25° C., 120 minutes.
Chain of wild type RET (P07949 29-1114): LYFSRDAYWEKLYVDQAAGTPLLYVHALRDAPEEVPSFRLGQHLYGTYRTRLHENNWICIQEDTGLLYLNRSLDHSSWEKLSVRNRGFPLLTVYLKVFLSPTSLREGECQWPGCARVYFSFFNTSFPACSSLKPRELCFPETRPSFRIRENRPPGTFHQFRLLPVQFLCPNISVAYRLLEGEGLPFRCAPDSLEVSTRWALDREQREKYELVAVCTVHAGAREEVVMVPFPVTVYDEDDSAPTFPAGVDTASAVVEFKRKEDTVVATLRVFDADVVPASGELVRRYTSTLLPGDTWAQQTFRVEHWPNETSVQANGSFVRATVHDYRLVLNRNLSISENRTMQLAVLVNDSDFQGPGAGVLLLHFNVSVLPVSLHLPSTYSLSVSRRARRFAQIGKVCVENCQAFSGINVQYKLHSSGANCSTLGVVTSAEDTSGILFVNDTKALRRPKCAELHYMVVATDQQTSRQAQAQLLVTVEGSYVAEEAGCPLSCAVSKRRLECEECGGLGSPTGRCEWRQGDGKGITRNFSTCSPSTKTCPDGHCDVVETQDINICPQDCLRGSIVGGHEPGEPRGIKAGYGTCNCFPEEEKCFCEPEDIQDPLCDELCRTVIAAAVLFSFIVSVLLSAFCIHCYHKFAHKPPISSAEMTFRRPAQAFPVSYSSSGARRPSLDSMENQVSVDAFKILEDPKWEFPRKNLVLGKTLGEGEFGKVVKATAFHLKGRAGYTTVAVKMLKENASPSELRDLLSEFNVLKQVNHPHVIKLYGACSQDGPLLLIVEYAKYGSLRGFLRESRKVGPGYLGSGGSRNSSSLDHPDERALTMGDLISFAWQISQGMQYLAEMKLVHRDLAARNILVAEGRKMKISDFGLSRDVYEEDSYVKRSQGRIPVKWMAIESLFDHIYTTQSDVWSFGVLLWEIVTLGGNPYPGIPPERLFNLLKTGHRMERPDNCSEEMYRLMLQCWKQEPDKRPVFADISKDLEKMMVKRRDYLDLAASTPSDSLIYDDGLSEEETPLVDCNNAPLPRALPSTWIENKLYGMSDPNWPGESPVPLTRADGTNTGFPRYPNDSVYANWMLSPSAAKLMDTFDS
As to `Cc1cc(Nc2cc(C)[nH]n2)nc(-c2ccc(C(=O)NCc3ccoc3)nc2)n1` [Compound 1], the pIC50 is 7.00 to 8.00.

In the case of `Cc1cc(Nc2cc(C)[nH]n2)nc(-c2ccc(C(=O)NCc3cncs3)nc2)n1` [Compound 3], the pIC50 was below 7.00.

As for `Cc1cc(Nc2cc(C)[nH]n2)nc(-c2ccc(C(=O)N3Cc4ccccc4C3)nc2)n1` [Compound 4], the pIC50 is 7.00 to 8.00.

Consider `Cc1ccc(CNC(=O)c2ccc(-c3nc(C)cc(Nc4cc(C)[nH]n4)n3)cn2)cc1` [Compound 5], for which the negative-log IC50 (pIC50) is 7.00 to 8.00.

On to `Cc1cc(Nc2cc(C)[nH]n2)nc(-c2ccc(C(=O)N[C@H](C)c3ccccc3)nc2)n1` [Compound 6], for which the pIC50 is below 7.00.

Turning to `Cc1ccc(CNC(=O)c2ccc(-c3nc(C)cc(Nc4cc(C)[nH]n4)n3)cn2)nc1` [Compound 7], the pIC50 was 7.00 to 8.00.

Take `Cc1cc(Nc2cc(C)[nH]n2)nc(-c2ccc(C(=O)NCc3cccc(F)c3)nc2)n1` [Compound 8]: the pIC50 was below 7.00.

For the compound `Cc1cc(Nc2cc(C)[nH]n2)nc(-c2ccc(C(=O)NCc3ccc(F)cc3)nc2)n1` [Compound 9], the negative logarithm of the IC50 (pIC50) is 7.00 to 8.00.

In the case of `Cc1cc(Nc2cc(C)[nH]n2)nc(-c2ccc(C(=O)NCc3ccc(Cl)cc3)nc2)n1` [Compound 11], the pIC50 is 7.00 to 8.00.

With `CCOc1ccc(CNC(=O)c2ncc(-c3nc(C)cc(Nc4cc(C)[nH]n4)n3)cc2C)cc1` [Compound 13], the pIC50 is 7.00 to 8.00.

Regarding `CCOc1ccc([C@@H](C)NC(=O)c2ncc(-c3nc(C)cc(Nc4cc(C)[nH]n4)n3)cc2C)cc1` [Compound 16], the negative logarithm of the IC50 (pIC50) is below 7.00.

With `CCOc1ccc([C@H](C)NC(=O)c2ncc(-c3nc(C)cc(Nc4cc(C)[nH]n4)n3)cc2C)cc1` [Compound 17], the negative logarithm of the IC50 (pIC50) is below 7.00.

With `Cc1cnn(-c2ccc(CNC(=O)c3ccc(-c4nc(C)cc(Nc5cc(C)[nH]n5)n4)cn3)cn2)c1` [Compound 18], the pIC50 was above 8.00.

Regarding `Cc1cc(Nc2cc(C)[nH]n2)nc(-c2cnc(C(=O)NCc3ccc(-n4cccn4)nc3)c(C)c2)n1` [Compound 19], the negative logarithm of the IC50 (pIC50) was above 8.00.

Turning to `Cc1cc(Nc2cc(C)[nH]n2)nc(-c2ccc(C(=O)NCc3cnc(-n4cc(F)cn4)cn3)nc2)n1` [Compound 21], the pIC50 is above 8.00.

For `Cc1cc(Nc2cc(C)[nH]n2)nc(-c2ccc(C(=O)NCc3ccc(-n4cc(C#N)cn4)nc3)nc2)n1` [Compound 22], the negative-log IC50 (pIC50) is 7.00 to 8.00.

For `Cc1cc(Nc2cc(C)[nH]n2)nc(-c2cnc(C(=O)N[C@@H](C)c3ccc(-n4cccn4)nc3)c(C)c2)n1` [Compound 23], the negative logarithm of the IC50 (pIC50) is above 8.00.

`Cc1cc(Nc2cc(C)[nH]n2)nc(-c2ccc(C(=O)NCc3ccc(-n4nc(C)cc4C)nc3)nc2)n1` [Compound 24]: the pIC50 is above 8.00.

As to `Cc1cc(Nc2cc(C)[nH]n2)nc(-c2ccc(C(=O)N[C@@H](C)c3ccc(-n4cc(F)cn4)nc3)nc2)n1` [Compound 25, (S)—N-(1-(6-(4-fluoro-1H-pyrazol-1-yl)pyridin-3-yl)ethyl)-5-(4-methyl-6-((5-methyl-1H-pyrazol-3-yl)amino)pyrimidin-2-yl)picolinamide], the negative logarithm of the IC50 (pIC50) was above 8.00.

As to `Cc1cc(Nc2cc(C)[nH]n2)nc(-c2ccc(C(=O)NCc3ccc(-n4ccc(C5CC5)n4)nc3)nc2)n1` [Compound 26], the pIC50 is above 8.00.

Turning to `Cc1cc(Nc2cc(C)[nH]n2)nc(-c2ccc(C(=O)NCc3ccc(-n4cc(C5CC5)cn4)nc3)nc2)n1` [Compound 27], the pIC50 was 7.00 to 8.00.

As for `Cc1cc(Nc2cc(C)[nH]n2)nc(-c2ccc(C(=O)NCc3ccc(-n4cc(CCO)cn4)nc3)nc2)n1` [Compound 28], the negative-log IC50 (pIC50) is 7.00 to 8.00.

For the compound `Cc1cc(Nc2cc(C)[nH]n2)nc(-c2cnc(C(=O)N[C@@H](C)c3ccc(-n4cc(F)cn4)nc3)c(C)c2)n1` [Compound 29, (S)—N-(1-(6-(4-fluoro-1H-pyrazol-1-yl)pyridin-3-yl)ethyl)-3-methyl-5-(4-methyl-6-((5-methyl-1H-pyrazol-3-yl)amino)pyrimidin-2-yl)picolinamide], the pIC50 is above 8.00.

Consider `Cc1cc(Nc2cc(C)[nH]n2)nc(-c2cnc(C(=O)N[C@@H](C)c3ccc(-n4cc(F)cn4)nc3)c(F)c2)n1` [Compound 30, (S)-3-fluoro-N-(1-(6-(4-fluoro-1H-pyrazol-1-yl)pyridin-3-yl)ethyl)-5-(4-methyl-6-((5-methyl-1H-pyrazol-3-yl)amino)pyrimidin-2-yl)picolinamide], for which the negative-log IC50 (pIC50) was above 8.00.

Consider `Cc1cc(Nc2cc(C)[nH]n2)nc(-c2ccc(C(=O)NCc3ccc(-n4cc(C(F)F)cn4)nc3)nc2)n1` [Compound 31], for which the pIC50 is 7.00 to 8.00.

With `Cc1cc(Nc2cc(C)[nH]n2)nc(-c2ccc(C(=O)NCc3ccc(-n4cc(C(F)F)c(C)n4)nc3)nc2)n1` [Compound 32], the negative logarithm of the IC50 (pIC50) is 7.00 to 8.00.

Consider `CC[C@@H](NC(=O)c1ccc(-c2nc(C)cc(Nc3cc(C)[nH]n3)n2)cn1)c1ccc(-n2cc(F)cn2)nc1` [Compound 34], for which the negative logarithm of the IC50 (pIC50) was above 8.00.

The pIC50 is the IC50 on a negative log10 scale, so that one unit is a factor of ten.

The values are drawn from patent publication US10202365B2, “2-(pyridin-3-yl)-pyrimidine derivatives as RET inhibitors” (BLUEPRINT MEDICINES CORPORATION, priority 2015, dated 2019).
